Where two headings read alike, the source gives them in different places.

Assay [1] deals with T1, full length human wildtype Btk (Homo sapiens, UniProt Q06187).
T1 construct: V5 (C); 6xHis (C); made in house; host or cells: Sf9 cells (baculovirus, pFastBac)
Description: Biochemical Btk Kinase Assay (Example 901). As to conditions: read-out: BTK LC3K (Ki). How it is done: Formula I compounds were tested by a standard biochemical Btk, Kinase Assay (Example 901). A generalized procedure for a standard biochemical Btk, Kinase Assay that can be used to test Formula I compounds is as follows. A master mix minus Btk enzyme is prepared containing 1× Cell Signaling kinase buffer (25 mM Tris-HCl, pH 7.5, 5 mM beta-glycerophosphate, 2 mM dithiothreitol, 0.1 mM Na3VO4, 10 mM MgCl2), 0.5 μM Promega PTK Biotinylated peptide substrate 2, and 0.01% BSA. A master mix plus Btk enzyme is prepared containing 1× Cell Signaling kinase buffer, 0.5 μM (micromolar) PTK Biotinylated peptide substrate 2, 0.01% BSA, and 100 ng/well (0.06 mU/well) Btk enzyme. Btk enzyme is prepared as follows: full length human wildtype Btk (accession number NM-000061) with a C-terminal V5 and 6×His tag was subcloned into pFastBac® vector (Invitrogen/Life Technologies) for making baculovirus carrying this epitope-tagged Btk. Generation of baculovirus is done based on Invitrogen's instructions detailed in its published protocol “Bac-to-Bac Baculovirus Expression Systems” (Invitrogen/Life Technologies, Cat. Nos. 10359-016 and 10608-016). Passage 3 virus is used to infect Sf9 cells to overexpress the recombinant Btk protein. The Btk protein is then purified to homogeneity using Ni-NTA column. The purity of the final protein preparation is greater than 95% based on the sensitive Sypro-Ruby staining. A solution of 200 μM ATP is prepared in water and adjusted to pH 7.4 with 1N NaOH. A quantity of 1.25 μL (microliter) of compounds in 5% DMSO is transferred to a 96-well 2 area Costar polystyrene plate. Compounds are tested singly and with an 11-point dose-responsive curve (starting concentration is 10 μM; 1:2 dilution). A quantity of 18.75 μL of master mix minus enzyme (as a negative control) and master mix plus enzyme is transferred to appropriate wells in 96-well 2 area costar polystyrene plate. 5 μL of 200 μM ATP is added to that mixture in the 96-well 2 area Costar polystyrene plate for final ATP concentration of 40 μM. The reaction is allowed to incubate for 1 hour at room temperature. The reaction is stopped with Perkin Elmer 1× detection buffer containing 30 mM EDTA, 20 nM SA-APC, and 1 nM PT66 Ab. The plate is read using time-resolved fluorescence with a Perkin Elmer Envision using excitation filter 330 nm, emission filter 665 nm, and 2nd emission filter 615 nm. IC50 values are subsequently calculated. Alternatively, the Lanthascreen assay can be used to evaluate Btk activity through quantification of its phosphorylated peptide product. The FRET (Fluorescence Resonance Energy Transfer) that occurs between the fluorescein on the peptide product and the terbium on the detection antibody decreases with the addition of inhibitors of Btk that reduce the phosphorylation of the peptide. In a final reaction volume of 25 μL (microliters), Btk (h) (0.1 ng/25 μl reaction) is incubated with 50 mM Hepes pH 7.5, 10 mM MgCl2, 2 mM MnCl2, 2 mM DTT, 0.2 mM NaVO4, 0.01% BSA, and 0.4 uM fluorescein poly-GAT. The reaction is initiated by the addition of ATP to 25 μM (micromolar) the Km of ATP. After incubation for 60 minutes at room temperature, the reaction is stopped by the addition of a final concentration of 2 nM Tb-PY20 detection antibody in 60 mM EDTA for 30 minutes at room temperature. Detection is determined on a Perkin Elmer Envision with 340 nm excitation and emission at 495 nm and 520 nm. Exemplary Btk inhibition […] values are in Table 1.

Assay [2] has as its system CD69 production by B lymphocytes in human whole blood activated with goat F(ab')2 anti-human IgM. Description: CD69 Whole Blood Assay (Example 907). As to conditions: Lymphocyte, read-out: CD69 Hu Blood FACS (IC70). In kind it is cell-based. The source says:
A CD69 Whole Blood Assay can be conducted on Formula I compounds to determine the ability of compounds to inhibit the production of CD69 by B lymphocytes in human whole blood activated by crosslinking surface IgM with goat F(ab′)2 anti-human IgM (Example 907). CD69 is a type II C-type lectin involved in lymphocyte migration and cytokine secretion. CD69 expression represents one of the earliest available indicators of leukocyte activation and its rapid induction occurs through transcriptional activation (Vazquez et al (2009) Jour. of Immunology Published Oct. 19, 2009, doi: 10.4049/jimmunol.0900839). Concentration-dependent inhibition of antigen receptor stimulation by selective Btk inhibitors induces cell surface expression of the lymphocyte activation marker CD69 (Honigberg et al (2010) Proc. Natl. Acad. Sci. 107(29):13075-13080). Thus, CD69 inhibition by selective Btk inhibitors may be correlated with therapeutic efficacy of certain B-cell disorders.
Human blood is obtained from healthy volunteers, with the following restrictions: 1 week drug-free, non-smokers. Blood (approximately 20 mls to test 8 compounds) is collected by venipuncture into Vacutainer® (Becton, Dickinson and Co.) tubes with sodium heparin.
Solutions of Formula I compounds at 10 mM in DMSO are diluted 1:10 in 100% DMSO, then are diluted by three-fold serial dilutions in 100% DMSO for a ten point dose-response curve. The compounds are further diluted 1:10 in PBS and then an aliquot of 5.5 μl of each compound is added in duplicate to a 2 ml 96-well plate; 5.5 μl of 10% DMSO in PBS is added as control and no-stimulus wells. Human whole blood—HWB (100 μl) is added to each well. After mixing the plates are incubated at 37° C., 5% CO2, 100% humidity for 30 minutes. Goat F(ab′)2 anti-human IgM (10 μl of a 500 μg/ml solution, 50 μg/ml final) is added to each well (except the no-stimulus wells) with mixing and the plates are incubated for an additional 20 hours. At the end of the 20 hour incubation, samples are incubated with fluorescent labeled antibodies for 30 minutes, at 37° C., 5% CO2, 100% humidity. Include induced control, unstained and single stains for compensation adjustments and initial voltage settings. Samples are then lysed with PharM Lyse™ (BD Biosciences Pharmingen) according to the manufacturer's instructions. Samples are then transferred to a 96 well plate suitable to be run on the BD Biosciences HTS 96 well system on the LSRII machine. Data acquired and Mean Fluorescence Intensity values were obtained using BD Biosciences DIVA Software. Results are initially analyzed by FACS analysis software (Flow Jo).

The mark [3] stands for this setting: human whole blood, anti-IgM stimulated, 20 hour incubation, CD20 positive cells, FACS.

T1 sequence (Q06187 whole entry): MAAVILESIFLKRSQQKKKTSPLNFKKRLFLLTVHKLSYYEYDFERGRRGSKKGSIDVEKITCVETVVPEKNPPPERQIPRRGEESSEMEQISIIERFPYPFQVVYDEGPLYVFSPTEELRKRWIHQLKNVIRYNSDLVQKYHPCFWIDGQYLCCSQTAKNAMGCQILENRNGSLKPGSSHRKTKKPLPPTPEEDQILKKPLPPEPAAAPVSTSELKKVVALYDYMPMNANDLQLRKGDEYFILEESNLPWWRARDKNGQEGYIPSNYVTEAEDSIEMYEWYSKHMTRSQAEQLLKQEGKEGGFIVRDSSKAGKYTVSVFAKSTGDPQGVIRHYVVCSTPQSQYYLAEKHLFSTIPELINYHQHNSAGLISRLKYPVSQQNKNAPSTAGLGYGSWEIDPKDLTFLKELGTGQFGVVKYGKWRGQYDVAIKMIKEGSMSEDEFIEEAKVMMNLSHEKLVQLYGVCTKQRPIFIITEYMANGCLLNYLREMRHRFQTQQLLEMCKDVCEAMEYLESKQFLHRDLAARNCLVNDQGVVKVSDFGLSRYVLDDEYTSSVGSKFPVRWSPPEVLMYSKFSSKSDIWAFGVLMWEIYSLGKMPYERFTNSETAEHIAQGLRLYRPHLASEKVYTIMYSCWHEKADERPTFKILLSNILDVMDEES

Take `CC1(C)Cc2cc3n(c2C1)CCN(c1nccc(-n2cc(NC(=O)C4CC4)c(C(N)=O)n2)c1CO)C3=O` [Example 109, 4-(cyclopropanecarbonylamino)-1-[2-(7,7-dimethyl-4-oxo-1,2,6,8-tetrahydrocyclopenta[3,4]pyrrolo[3,5-b]pyrazin-3-yl)-3-(hydroxymethyl)-4-pyridyl]pyrazole-3-carboxamide]: the Ki in assay [1] was 0.924 nM. Moreover, in assay [2] (setting [3]), the IC70 was 47.4 nM.

On to `Cn1cc(Nc2nn(-c3cccc(N4CCn5c(cc6c5CC(C)(C)C6)C4=O)c3CO)cc2C(N)=O)nn1` [Example 105, 1-[3-(7,7-dimethyl-4-oxo-1,2,6,8-tetrahydrocyclopenta[3,4]pyrrole[3,5-b]pyrazin-3-yl)-2-(hydroxymethyl)phenyl]-3-[(1-methyltriazol-4-yl)amino]pyrazole-4-carboxamide], for which, in assay [1], the Ki turned out to be 0.326 nM. Moreover, the IC70 in assay [2] (setting [3]) came to 32.3 nM.

For `CC(C)(C)c1cc(F)c2c(=O)n(-c3nccc(-n4cc(C(N)=O)c(Nc5ccccn5)n4)c3CO)ncc2c1` [Example 106, 1-[2-(6-tert-butyl-8-fluoro-1-oxo-phthalazin-2-yl)-3-(hydroxymethyl)-4-pyridyl]-3-(2-pyridylamino)pyrazole-4-carboxamide], the Ki in assay [1] amounted to 0.34 nM. For the same compound, the IC70 in assay [2] (Homo sapiens, 20 h) was found to be 132 nM.

For `CC1(C)Cc2cc3n(c2C1)CCN(c1nccc(-n2cc(C(N)=O)c(NC(=O)[C@@H]4C[C@@H]4F)n2)c1CO)C3=O` [Example 112, 1-[2-(7,7-dimethyl-4-oxo-1,2,6,8-tetrahydrocyclopenta[3,4]pyrrolo[3,5-b]pyrazin-3-yl)-3-(hydroxymethyl)-4-pyridyl]-3-[(2-fluorocyclopropanecarbonyl)amino]pyrazole-4-carboxamide], the Ki in assay [1] stood at 0.436 nM. In addition, in assay [2] (setting [3]), the IC70 was 100 nM.

`CC1(C)Cc2cc3n(c2C1)CCN(c1nccc(-n2nc(C(N)=O)c4cccnc42)c1CO)C3=O` [Example 110, 1-[2-(7,7-dimethyl-4-oxo-1,2,6,8-tetrahydrocyclopenta[3,4]pyrrolo[3,5-b]pyrazin-3-yl)-3-(hydroxymethyl)-4-pyridyl]pyrazolo[3,4-b]pyridine-3-carboxamide]: the Ki in assay [1] amounted to 3.32 nM. The IC70 in assay [2] (setting [3]) came out at 5300 nM.

Consider `Cn1cc(-c2nn(-c3ccnc(-n4ncc5cc(C(C)(C)C)cc(F)c5c4=O)c3CO)cc2C(N)=O)cn1` [Example 115, 1-[2-(6-tert-butyl-8-fluoro-1-oxo-phthalazin-2-yl)-3-(hydroxymethyl)-4-pyridyl]-3-(1-methylpyrazol-4-yl)pyrazole-4-carboxamide], for which the inhibition constant Ki in assay [1] was 0.997 nM. Also, the IC70 in assay [2] (setting [3]) amounted to 268 nM.

Take `C[C@H]1CN(C2COC2)CCN1c1ccc(Nc2cn(-c3ccnc(N4CCn5c(cc6c5CC(C)(C)C6)C4=O)c3CO)nc2C(N)=O)nc1` [Example 126, 1-[2-(7,7-dimethyl-4-oxo-1,2,6,8-tetrahydrocyclopenta[3,4]pyrrolo[3,5-b]pyrazin-3-yl)-3-(hydroxymethyl)-4-pyridyl]-4-[[5-[(2S)-2-methyl-4-(oxetan-3-yl)piperazin-1-yl]-2-pyridyl]amino]pyrazole-3-carboxamide]: the Ki in assay [1] was 0.156 nM. In addition, the IC70 in assay [2] (setting [3]) worked out at 6.4 nM.

Regarding `CC1(C)Cc2cc3n(c2C1)CCN(c1nccc(-n2nc(C(N)=O)c4ccccc42)c1CO)C3=O` [Example 108, 1-[2-(7,7-dimethyl-4-oxo-1,2,6,8-tetrahydrocyclopenta[3,4]pyrrolo[3,5-b]pyrazin-3-yl)-3-(hydroxymethyl)-4-pyridyl]indazole-3-carboxamide], the Ki in assay [1] was determined as 1.83 nM. Moreover, in assay [2] (setting [3]), the IC70 is 726 nM.

For `Cn1cc(Nc2nn(-c3ccnc(N4CCn5c(cc6c5CC(C)(C)C6)C4=O)c3CO)cc2C(N)=O)nn1` [Example 119, 1-[2-(7,7-dimethyl-4-oxo-1,2,6,8-tetrahydrocyclopenta[3,4]pyrrolo[3,5-b]-pyrazin-3-yl)-3-(hydroxymethyl)-4-pyridyl]-3-[(1-methyltriazol-4-yl)amino]pyrazole-4-carboxamide], the Ki in assay [1] came out at 0.317 nM. Besides, the IC70 in assay [2] (setting [3]) amounted to 47.2 nM.

For the compound `Cc1nn(C)cc1-c1nn(-c2ccnc(-n3ncc4cc(C(C)(C)C)cc(F)c4c3=O)c2CO)cc1C(N)=O` [Example 122, 1-[2-(6-tert-butyl-8-fluoro-1-oxo-phthalazin-2-yl)-3-(hydroxymethyl)-4-pyridyl]-3-(1,3-dimethylpyrazol-4-yl)pyrazole-4-carboxamide], the Ki in assay [1] came to 8.6 nM. Moreover, the IC70 in assay [2] (setting [3]) is 3300 nM.

For `CC(C)(C)c1cc(F)c2c(=O)n(-c3nccc(-n4cc(C(N)=O)c(-c5cnn(C(F)F)c5)n4)c3CO)ncc2c1` [Example 121, 1-[2-(6-tert-butyl-8-fluoro-1-oxo-phthalazin-2-yl)-3-(hydroxymethyl)-4-pyridyl]-3-[1-(difluoromethyl)pyrazol-4-yl]pyrazole-4-carboxamide], the Ki in assay [1] was found to be 1.15 nM. Also, in assay [2] (setting [3]), the IC70 is 1400 nM.

In the case of `CC1(C)Cc2cc3n(c2C1)CCN(c1cccc(-n2cc(C(N)=O)c(Nc4ccncn4)n2)c1CO)C3=O` [Example 104, 1-[3-(7,7-dimethyl-4-oxo-1,2,6,8-tetrahydrocyclopenta[3,4]pyrrole[3,5-b]pyrazin-3-yl)-2-(hydroxymethyl)phenyl]-3-(pyrimidin-4-ylamino)pyrazole-4-carboxamide], the inhibitory constant (Ki) in assay [1] turned out to be 0.249 nM. Also, in assay [2] (setting [3]), the IC70 turned out to be 36.2 nM.

For the origin of these results see patent publication US20190194209A1, “PYRAZOLE CARBOXAMIDE COMPOUNDS AND METHODS OF USE” (Genentech, Inc., priority 2014, published 2019).
